According to ChEMBL document CHEMBL4732221, “Design, synthesis and bioactivity evaluation of novel pyrazole linked phenylthiazole derivatives in context of antibacterial activity” (Bioorg Med Chem Lett, 2021):
≈ marks a conversion by molar mass, not a printed value. Calls of active or inactive are those of the source. The rule behind the calls is not given here.

What was measured:
Format in all cases: functional
Candida albicans [1] = assay: Antifungal activity against Candida albicans ATCC 90028 assessed as growth inhibition after 36 hrs by monochromator plate assay
Cryptococcus neoformans [2] = assay: Antifungal activity against Cryptococcus neoformans var. grubii ATCC 208821 assessed as growth inhibition at 32 ug/ml after 36 hrs by monochromator plate assay relative to control; settings: dose 32.0 µg/ml
Acinetobacter baumannii [3] = assay: Antibacterial activity against Acinetobacter baumannii ATCC 19606 assessed as growth inhibition after 18 hrs by monochromator plate assay
Escherichia coli [4] = assay: Antibacterial activity against Escherichia coli ATCC 25922 assessed as growth inhibition after 18 hrs by monochromator plate assay
Staphylococcus aureus [5] = assay: Antibacterial activity against methicillin-resistant Staphylococcus aureus ATCC 43300 assessed as growth inhibition after 18 hrs by monochromator plate assay
Klebsiella pneumoniae [6] = assay: Antibacterial activity against Klebsiella pneumoniae ATCC 700603 assessed as growth inhibition at 32 ug/ml after 18 hrs by microplate reader assay relative to control; settings: for inhibition: dose 32.0 µg/ml
Candida albicans [7] = assay: Antifungal activity against Candida albicans ATCC 90028 assessed as growth inhibition at 32 ug/ml after 36 hrs by monochromator plate assay relative to control; settings: for inhibition: dose 32.0 µg/ml
Cryptococcus neoformans [8] = assay: Antifungal activity against Cryptococcus neoformans var. grubii ATCC 208821) assessed as growth inhibition after 36 hrs by monochromator plate assay relative to control
Staphylococcus aureus [9] = assay: Antibacterial activity against methicillin-resistant Staphylococcus aureus ATCC 43300 assessed as growth inhibition at 32 ug/ml after 18 hrs by monochromator plate assay relative to control
Klebsiella pneumoniae [10] = assay: Antibacterial activity against Klebsiella pneumoniae ATCC 700603 assessed as growth inhibition after 18 hrs by monochromator plate assay
Pseudomonas aeruginosa [11] = assay: Antibacterial activity against Pseudomonas aeruginosa ATCC 27853 assessed as growth inhibition after 18 hrs by monochromator plate assay
Pseudomonas aeruginosa [12] = assay: Antibacterial activity against Pseudomonas aeruginosa ATCC 27853 assessed as growth inhibition at 32 ug/ml after 18 hrs by monochromator plate assay relative to control; settings: for inhibition: dose 32.0 µg/ml
Escherichia coli [13] = assay: Antibacterial activity against Escherichia coli ATCC 25922 assessed as growth inhibition at 32 ug/ml after 18 hrs by monochromator plate assay relative to control; settings: for inhibition: dose 32.0 µg/ml
Acinetobacter baumannii [14] = assay: Antibacterial activity against Acinetobacter baumannii ATCC 19606 assessed as growth inhibition at 32 ug/ml after 18 hrs by monochromator plate assay relative to control; settings: for inhibition: dose 32.0 µg/ml

SMILES | MIC (Candida albicans [1]) | inhibition (Cryptococcus neoformans [2]) | MIC (Acinetobacter baumannii [3]) | MIC (Escherichia coli [4]) | MIC (Staphylococcus aureus [5]) [µg/mL] | inhibition at 32 µg/mL (Klebsiella pneumoniae [6]) [%] | inhibition at 32 µg/mL (Candida albicans [7]) [%] | MIC (Cryptococcus neoformans [8]) | inhibition at 32 µg/mL (Staphylococcus aureus [9]) [%] | MIC (Klebsiella pneumoniae [10]) | MIC (Pseudomonas aeruginosa [11]) | inhibition at 32 µg/mL (Pseudomonas aeruginosa [12]) [%] | inhibition (Escherichia coli [13]) | inhibition (Acinetobacter baumannii [14]) | inhibition (Klebsiella pneumoniae [6]) | inhibition at 32 µg/mL (Acinetobacter baumannii [14]) [%] | inhibition (Pseudomonas aeruginosa [12]) | inhibition at 32 µg/mL (Escherichia coli [13]) [%] | inhibition (Candida albicans [7]) | inhibition (Staphylococcus aureus [9]; dose 32.0 µg/ml)
Cc1nc(-c2ccc(I)cc2)sc1-c1cc(C(=O)Nc2ccccc2)n[nH]1 | > 32 µg/mL | inactive | inactive | inactive | > 32 | 4.7 | 4.6 | inactive | 19 | > 32 µg/mL | > 32 µg/mL | 11.1 | inactive | inactive |  |  |  |  |  | 
Cc1cccc(-c2ccc(-c3nc(C)c(-c4cc(C(=O)NC5CCCCC5)n[nH]4)s3)cc2)c1C | > 32 µg/mL | inactive | inactive | inactive | 32 (≈ 68 µM) |  | 6.1 | inactive | 7.2 | inactive | > 32 µg/mL | 7.1 | inactive | inactive | inactive |  |  |  |  | 
COC(=O)c1cc(-c2sc(-c3ccc(I)cc3)nc2C)[nH]n1 | > 32 µg/mL | inactive | > 32 µg/mL | inactive | > 32 |  | 5.1 | inactive | 14.2 | inactive | > 32 µg/mL | 6.6 | inactive |  | inactive | 4.9 |  |  |  | 
Cc1nc(-c2ccc(-c3ccccc3)cc2)sc1-c1cc(C(=O)Nc2ccc(F)cc2)n[nH]1 | > 32 µg/mL | inactive | > 32 µg/mL | inactive | > 32 | 4.4 | 19.6 | inactive | 15.1 | > 32 µg/mL | > 32 µg/mL | 5.1 | inactive |  |  | 3 |  |  |  | 
CCCCc1ccc(NC(=O)c2cc(-c3sc(-c4ccc(-c5ccccc5)cc4)nc3C)[nH]n2)cc1 | > 32 µg/mL | inactive | > 32 µg/mL | inactive | > 32 | 3.3 | 13.5 | inactive | 9.5 | > 32 µg/mL | > 32 µg/mL | 5.6 | inactive |  |  | 4.1 |  |  |  | 
Cc1nc(-c2ccc(I)cc2)sc1-c1cc(C(=O)O)n[nH]1 | > 32 µg/mL | inactive | > 32 µg/mL | > 32 µg/mL | > 32 | 12 | 25.5 | inactive | 31.8 | > 32 µg/mL | inactive |  |  |  |  | 6.6 | inactive | 27.5 |  | 
Cc1nc(-c2ccc(-c3ccccc3)cc2)sc1-c1cc(C(=O)Nc2ccc(C(C)(C)C)cc2)n[nH]1 | > 32 µg/mL | inactive | > 32 µg/mL | inactive | > 32 | 5.2 | 5.2 | inactive | 13.2 | > 32 µg/mL | > 32 µg/mL | 2.2 | inactive |  |  | 3 |  |  |  | 
Cc1nc(-c2ccc(-c3ccccc3)cc2)sc1-c1cc(C(=O)Nc2ccc3c(c2)OCO3)n[nH]1 | > 32 µg/mL | inactive | inactive | inactive | > 32 | 7.5 | 5 | inactive | 3.2 | > 32 µg/mL | > 32 µg/mL | 1.3 | inactive | inactive |  |  |  |  |  | 
CCOC(=O)c1cc(-c2sc(-c3ccc(I)cc3)nc2C)[nH]n1 | > 32 µg/mL | inactive | > 32 µg/mL | inactive | > 32 | 15.1 | 7.8 | inactive | 16.4 | > 32 µg/mL | > 32 µg/mL | 16.6 | inactive |  |  | 6.6 |  |  |  | 
Cc1nc(-c2ccc(I)cc2)sc1-c1cc(C(=O)NC2CCCCC2)n[nH]1 | > 32 µg/mL | inactive | inactive | inactive | > 32 | 6.9 | 40.5 | inactive | 12.9 | > 32 µg/mL | > 32 µg/mL | 17.8 | inactive | inactive |  |  |  |  |  | 
Cc1nc(-c2ccc(-c3cccc4ccccc34)cc2)sc1-c1cc(C(=O)NC2CCCCC2)n[nH]1 | > 32 µg/mL | inactive | inactive | inactive | > 32 |  | 40.8 | inactive | 19.4 | inactive | > 32 µg/mL | 6.1 | inactive | inactive | inactive |  |  |  |  | 
OC(Cn1cncn1)(Cn1cncn1)c1ccc(F)cc1F [FLUCONAZOLE] | 0.125 µg/mL (≈ 0.408 µM) | inactive |  |  |  |  |  | 8 µg/mL (≈ 26.1 µM) |  |  |  |  |  |  |  |  |  |  | inactive | 
Cc1ccc(-c2ccc(-c3nc(C)c(-c4cc(C(=O)NC5CCCCC5)n[nH]4)s3)cc2)cc1 | > 32 µg/mL | inactive | > 32 µg/mL | inactive | > 32 | 12.2 | 18.9 | inactive | 23.8 | > 32 µg/mL | > 32 µg/mL | 16.5 | inactive |  |  | 4.3 |  |  |  | 
Cc1nc(-c2ccc(-c3ccccc3)cc2)sc1-c1cc(C(=O)NC2CCCCC2)n[nH]1 | inactive | inactive | > 32 µg/mL | inactive | > 32 | 6.9 |  | inactive | 84.9 | > 32 µg/mL | > 32 µg/mL | 6.6 | inactive |  |  | 2.9 |  |  | inactive | 
Cc1ccc(NC(=O)c2cc(-c3sc(-c4ccc(-c5ccccc5)cc4)nc3C)[nH]n2)cc1C | > 32 µg/mL | inactive | inactive | inactive | > 32 | 3.5 | 10.1 | inactive | 10.8 | > 32 µg/mL | > 32 µg/mL | 2.2 | inactive | inactive |  |  |  |  |  | 
Cc1nc(-c2ccc(-c3ccccc3)cc2)sc1-c1cc(C(=O)Nc2ccc(C(F)(F)F)cc2)n[nH]1 | > 32 µg/mL | inactive | inactive | inactive | > 32 | 0.8 | 4.3 | inactive | 9.9 | > 32 µg/mL | > 32 µg/mL | 2.8 | inactive | inactive |  |  |  |  |  | 
Cc1nc(-c2ccc(-c3ccccc3)cc2)sc1-c1cc(C(=O)NNc2ccccc2)n[nH]1 | > 32 µg/mL | inactive | > 32 µg/mL | inactive | > 32 |  | 17.8 | inactive | 8.2 | inactive | inactive |  | inactive |  | inactive | 5.5 | inactive |  |  | 
CN[C@H](CC(C)C)C(=O)N[C@H]1C(=O)N[C@@H](CC(N)=O)C(=O)N[C@H]2C(=O)N[C@H]3C(=O)N[C@H](C(=O)N[C@H](C(=O)O)c4cc(O)cc(O)c4-c4cc3ccc4O)[C@H](O)c3ccc(c(Cl)c3)Oc3cc2cc(c3O[C@@H]2O[C@H](CO)[C@@H](O)[C@H](O)[C@H]2O[C@H]2C[C@](C)(N)[C@H](O)[C@H](C)O2)Oc2ccc(cc2Cl)[C@H]1O |  |  |  |  |  |  |  |  |  |  |  |  |  |  |  |  |  |  |  | inactive
